Test results as given in patent US20070219183A1, “Dihydropyrazolo[1,5-A]pyrimidine and dihydroimidazo[1,5-A]pyrimidine derivatives and methods of use thereof” (Wyeth, priority 2006, published 2007).

molecular target: T1, Flag/GST-tagged recombinant human B-Raf (Homo sapiens, UniProt P15056); experiment: B-Raf Kinase to MEK1 ELISA; type: biochemical; conditions: phosphorylation of GST-MEK1 (50 nM final), phospho-MEK1 antibody/Europium readout; 60 minutes at RT
T1 construct: Flag; GST; made in house; host or cells: Sf9 insect cells (B-Raf); E. coli (Mek-1-GST)
T1 sequence (P15056 whole entry): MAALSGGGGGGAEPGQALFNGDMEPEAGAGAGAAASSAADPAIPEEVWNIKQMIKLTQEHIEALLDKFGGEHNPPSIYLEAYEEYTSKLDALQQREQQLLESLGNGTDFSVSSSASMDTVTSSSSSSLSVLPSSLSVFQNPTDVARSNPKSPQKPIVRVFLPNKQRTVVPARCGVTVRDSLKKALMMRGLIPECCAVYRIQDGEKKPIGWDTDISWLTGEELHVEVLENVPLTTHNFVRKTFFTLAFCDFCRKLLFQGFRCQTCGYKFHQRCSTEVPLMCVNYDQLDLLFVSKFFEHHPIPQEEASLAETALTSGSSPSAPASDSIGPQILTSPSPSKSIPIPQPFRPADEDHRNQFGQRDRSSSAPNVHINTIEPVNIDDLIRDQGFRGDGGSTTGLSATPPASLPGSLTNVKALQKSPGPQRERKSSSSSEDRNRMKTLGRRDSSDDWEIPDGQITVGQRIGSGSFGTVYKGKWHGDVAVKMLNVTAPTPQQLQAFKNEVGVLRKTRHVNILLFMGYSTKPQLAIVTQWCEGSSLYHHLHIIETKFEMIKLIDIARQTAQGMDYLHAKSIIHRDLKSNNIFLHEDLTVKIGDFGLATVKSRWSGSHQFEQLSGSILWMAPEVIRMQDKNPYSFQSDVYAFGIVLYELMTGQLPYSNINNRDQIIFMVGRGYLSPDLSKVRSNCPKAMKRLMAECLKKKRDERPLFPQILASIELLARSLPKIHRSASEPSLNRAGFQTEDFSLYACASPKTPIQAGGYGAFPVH
Text: • TITLE: B-Raf Kinase to MEK1 ELISA • PURPOSE: To discover B-Raf Kinase inhibitors that can inhibit growth of tumor cells which contain oncogenic forms of Receptor Tyrosine Kinases or K-Ras, or B-Raf kinase.
Reagents: Flag/GST-tagged recombinant human B-Raf produced in Sf9 insect cells, human non-active Mek-1-GST (recombinant protein produced in E. coli); and a phospho-MEK1 specific poly-clonal Ab from Cell Signaling Technology (cat. #9121).
B-Raf-1 is used to phosphorylate GST-MEK1. MEK1 phosphorylation is measured by a phospho-specific antibody (from Cell Signaling Technology, cat. #9121) that detects phosphorylation of two serine residues at positions 217 and 221 on MEK1.
1. Assay Dilution Buffer (ADB): 20 mM MOPS, pH 7.2, 25 mM β-glycerol phosphate, 5 mM EGTA, 1 mM sodium orthovanadate, 1 mM dithiothreitol.
2. Magnesium/ATP Cocktail: 200 μM cold ATP and 40 mM magnesium chloride in ADB.
4. Active Kinase: Active B-Raf: used at ˜20 ng per assay point.
5. Non-active GST-MEK1: Use at 100 nM (50 nM final).
7. Anti-GST Ab (Pharmacia)
8. Anti-rabbit Ab/Europium conjugate (Wallac)
1. Add 25 μl of ADB containing B-Raf and Mek per assay (i.e. per well of a 96 well plate)
2. Add 25 μl of 0.2 mM ATP and 40 mM magnesium chloride in ADB.
3. Incubate for 60 minutes at RT in a shaking incubator.
4. Transfer this mixture to an anti-GST Ab coated 96 well plate (Nunc Immunosorb plates coated o/n with a-GST.
5. Incubate for 60 minutes at 30° C. in a shaking incubator
6. Wash 3× with TBST, add Anti-Phospho MEK1 (1:1000)
7. Incubate for 60 minutes at 30° C. in a shaking incubator
8. Wash 3× with TBST, add Anti-rabbit Ab/Europium conjugate (Wallac) (1:500)
9. Incubate for 60 minutes at 30° C. in a shaking incubator
10. Add 100 ul of Wallac Delfia Enhancement Solution and shake for 10 minutes.
11. Read plates in Wallac Victor model Plate Reader.
12. Collect data analyze in Excel for single point and IC50 determinations.
• Single point assay—% inhibition at […] (% Inhibition=1−cpd.treated sample/untreated control) • IC50 determinations—done on cpds from single pt assays with >80% inhibition. Typically Raf-1 assay is run at cpd concentrations from 10 μM to 30 nM in half log dilutions. (% inhibition is determined for each cpd concentration) • Data handling—Data is analyzed in Excel, and will transferred to Radis.

Question: How did the IC50 turn out when `O=C(Nc1cccc(C2=CCNc3ccnn32)c1)c1cccc(C(F)(F)F)c1` [Example 1, N-[3-(4,5-dihydropyrazolo[1,5-a]pyrimidin-7-yl)phenyl]-3-(trifluoromethyl)benzamide] was run?
Answer: > 10000 nM

Question: With `CS(=O)(=O)N1CC=C(c2cccc(NC(=O)c3cccc(C(F)(F)F)c3)c2)n2nccc21` [Example 2, N-{3-[4-(Methylsulfonyl)-4,5-dihydropyrazolo[1,5-a]pyrimidin-7-yl]phenyl}-3-(trifluoromethyl)benzamide] as the compound, how does the IC50 read?
Answer: 683 nM

Question: With `COC(=O)N1CC=C(c2cccc(NC(=O)c3cccc(C(F)(F)F)c3)c2)n2nccc21` [Example 3, Methyl 7-(3-{[3-(trifluoromethyl)benzoyl]amino}phenyl)pyrazolo[1,5-a]pyrimidine-4(5H)-carboxylate] as the compound, how does the IC50 read?
Answer: 163 nM

Question: `CCOC(=O)N1CC=C(c2cccc(NC(=O)c3cccc(C(F)(F)F)c3)c2)n2nccc21` [Example 4, Ethyl 7-(3-{[3-(trifluoromethyl)benzoyl]amino}phenyl)pyrazolo[1,5-a]pyrimidine-4(5H)-carboxylate] was tested. Which IC50 did it give?
Answer: 370 nM

Question: Which IC50 does the source give for `CC(C)NC(=O)N1CC=C(c2cccc(NC(=O)c3cccc(C(F)(F)F)c3)c2)n2nccc21` [Example 5, N-isopropyl-7-(3-{[3-(trifluoromethyl)benzoyl]amino}phenyl)pyrazolo[1,5-a]pyrimidine-4(5H)-carboxamide] here?
Answer: 1620 nM

Question: `CC(C)(C)OC(=O)N1CC=C(c2cccc(NC(=O)c3cccc(C(F)(F)F)c3)c2)n2nccc21` [Example 6, tert-Butyl 7-(3-{[3-(trifluoromethyl)benzoyl]amino}phenyl)pyrazolo[1,5-a]pyrimidine-4(5H)-carboxylate] was tested. Which IC50 did it give?
Answer: 815 nM

Question: `CC#CCN1CC=C(c2cccc(NC(=O)c3cccc(C(F)(F)F)c3)c2)n2nccc21` [Example 7, N-[3-(4-But-2-yn-1-yl-4,5-dihydropyrazolo[1,5-a]pyrimidin-7-yl)phenyl]-3-(trifluoromethyl)benzamide] was tested. Which IC50 did it give?
Answer: 868 nM

Question: Which IC50 does the source give for `CCOC(=O)c1cnn2c1NCC=C2c1cccc(NC(=O)c2cccc(C(F)(F)F)c2)c1` [Example 8, Ethyl 7-(3-{[3-(trifluoromethyl)benzoyl]amino}phenyl)-4,5-dihydropyrazolo[1,5-a]pyrimidine-3-carboxylate] here?
Answer: 278 nM

Question: Which IC50 does the source give for `CCNC(=O)N1CC=C(c2cccc(NC(=O)c3cccc(C(F)(F)F)c3)c2)n2nccc21` [Example 9, N-Ethyl-7-(3-{[3-(trifluoromethyl)benzoyl]amino}phenyl)pyrazolo[1,5-a]pyrimidine-4(5H)-carboxamide] here?
Answer: > 10000 nM

Question: `CC(=O)N1CC=C(c2cccc(NC(=O)c3cccc(C(F)(F)F)c3)c2)n2nccc21` [Example 10, N-[3-(4-Acetyl-4,5-dihydropyrazolo[1,5-a]pyrimidin-7-yl)phenyl]-3-(trifluoromethyl)benzamide] was tested. Which IC50 did it give?
Answer: 3770 nM

Question: How did the IC50 turn out when `CCOC(=O)c1cnn2c1N(C(C)=O)CC=C2c1cccc(NC(=O)c2cccc(C(F)(F)F)c2)c1` [Example 11, Ethyl 4-acetyl-7-(3-{[3-(trifluoromethyl)benzoyl]amino}phenyl)-4,5-dihydropyrazolo[1,5-a]pyrimidine-3-carboxylate] was run?
Answer: 572 nM

Question: How did the IC50 turn out when `CC(C)(C)OC(=O)N1CC=C(c2cccc(N(C(=O)OC(C)(C)C)C(=O)c3cccc(C(F)(F)F)c3)c2)n2nccc21` [Example 12, tert-Butyl 7-(3-{(tert-butoxycarbonyl)[3-(trifluoromethyl)benzoyl]amino}phenyl)pyrazolo[1,5-a]pyrimidine-4(5H)-carboxylate 4(5H)-carboxylate] was run?
Answer: > 10000 nM

Question: How did the IC50 turn out when `CCOC(=O)c1cnn2c1N(C(=O)OC)CC=C2c1cccc(NC(=O)c2cccc(C(F)(F)F)c2)c1` [Example 13, 3-Ethyl 4-methyl 7-(3-{[3-(trifluoromethyl)benzoyl]amino}phenyl)pyrazolo[1,5-a]pyrimidine-3,4(5H)-dicarboxylate] was run?
Answer: 126 nM

Question: Which IC50 does the source give for `CC(C)(C)OC(=O)NCC(=O)N1CC=C(c2cccc(NC(=O)c3cccc(C(F)(F)F)c3)c2)n2nccc21` [Example 14, tert-Butyl {2-oxo-2-[7-(3-{[3-(trifluoromethyl)benzoyl]amino}phenyl)pyrazolo[1,5-a]pyrimidin-4(5H)-yl]ethyl}carbamate] here?
Answer: > 10000 nM

Question: Which IC50 does the source give for `NCC(=O)N1CC=C(c2cccc(NC(=O)c3cccc(C(F)(F)F)c3)c2)n2nccc21` [Example 15, N-[3-(4-Glycyl-4,5-dihydropyrazolo[1,5-a]pyrimidin-7-yl)phenyl]-3-(trifluoromethyl)benzamide] here?
Answer: > 10000 nM

Question: For `CC(=O)NCC(=O)N1CC=C(c2cccc(NC(=O)c3cccc(C(F)(F)F)c3)c2)n2nccc21` [Example 16, N-{3-[4-(N-Acetylglycyl)-4,5-dihydropyrazolo[1,5-a]pyrimidin-7-yl]phenyl}-3-(trifluoromethyl)benzamide], which IC50 is on record?
Answer: 1770 nM

Question: With `CC(C)(C)OC(=O)NCCC(=O)N1CC=C(c2cccc(NC(=O)c3cccc(C(F)(F)F)c3)c2)n2nccc21` [Example 17, tert-Butyl {3-oxo-3-[7-(3-{[3-(trifluoromethyl)benzoyl]amino}phenyl)pyrazolo[1,5-a]pyrimidin-4(5H)-yl]propyl}carbamate] as the compound, how does the IC50 read?
Answer: 385 nM

Question: How did the IC50 turn out when `NCCC(=O)N1CC=C(c2cccc(NC(=O)c3cccc(C(F)(F)F)c3)c2)n2nccc21` [Example 18, N-[3-(4-β-Alanyl-4,5-dihydropyrazolo[1,5-a]pyrimidin-7-yl)phenyl]-3-(trifluoromethyl)benzamide] was run?
Answer: > 10000 nM

Question: Which IC50 does the source give for `CC(=O)NCCC(=O)N1CC=C(c2cccc(NC(=O)c3cccc(C(F)(F)F)c3)c2)n2nccc21` [Example 19, N-{3-[4-(N-Acetyl-β-alanyl)-4,5-dihydropyrazolo[1,5-a]pyrimidin-7-yl]phenyl}-3-(trifluoromethyl)benzamide] here?
Answer: 716 nM

Question: Which IC50 does the source give for `O=C(Nc1ccc(Cl)c(C2=CCNc3ccnn32)c1)c1cccc(C(F)(F)F)c1` [Example 20, N-[4-Chloro-3-(4,5-dihydropyrazolo[1,5-a]pyrimidin-7-yl)phenyl]-3-(trifluoromethyl)benzamide] here?
Answer: 161 nM
